From ChEMBL document CHEMBL4038347, “Converting Teixobactin into a Cationic Antimicrobial Peptide (AMP)” (2017)
Converted amounts (≈) assume the structure as drawn. Where a SMILES comes first, the peptide text is derived from it. Bridges are numbered along the chain shown (N, C = ends). [ ]: non-standard residue; d: D form. d(aIle) = CC[C@H](C)[C@@H](N)C(=O)O; dNMeF = CN[C@H](Cc1ccccc1)C(=O)O; Orn = NCCC[C@H](N)C(=O)O

Columns and labels:
Format in all cases: functional
Staphylococcus aureus = experiment: Antibacterial activity against Staphylococcus aureus ATCC 29213 after 24 hrs by broth microdilution method; details: ATCC 29213, 24 h
Bacillus subtilis = experiment: Antibacterial activity against Bacillus subtilis ATCC 6051 after 24 hrs by broth microdilution method; details: ATCC 6051, 24 h
Escherichia coli = experiment: Antibacterial activity against Escherichia coli ATCC 25922 after 24 hrs by broth microdilution method; details: ATCC 25922, 24 h
Pseudomonas aeruginosa = experiment: Antibacterial activity against Pseudomonas aeruginosa ATCC 27853 after 24 hrs by broth microdilution method; details: ATCC 27853, 24 h

Row | MIC (Staphylococcus aureus) [µg/mL] | MIC (Bacillus subtilis) [µg/mL] | MIC (Escherichia coli) [µg/mL] | MIC (Pseudomonas aeruginosa) [µg/mL] | Structure (SMILES)
1 | 256 (≈ 195 µM) | 4 (≈ 3.04 µM) | 32 (≈ 24.3 µM) | 64 (≈ 48.7 µM) | CC[C@H](C)[C@H](NC(=O)[C@@H](Cc1ccccc1)NC)C(=O)N[C@@H](CO)C(=O)N[C@H](CCCCN)C(=O)N[C@@H](C(=O)N[C@H](C(=O)N[C@@H](CCCCN)C(=O)N[C@H]1C(=O)N[C@@H](CCCCN)C(=O)N[C@@H](CCCCN)C(=O)N[C@@H]([C@@H](C)CC)C(=O)O[C@H]1C)[C@@H](C)CC)[C@@H](C)CC (H-[dNMeF]IS[dK][d(aIle)]IK[dT]KKI; ester 8-C)
2 | 16 (≈ 12.9 µM) | 4 (≈ 3.22 µM) | 64 (≈ 51.5 µM) | 64 (≈ 51.5 µM) | CC[C@H](C)[C@H](NC(=O)[C@@H](Cc1ccccc1)NC)C(=O)N[C@@H](CCCCN)C(=O)N[C@H](CCCCN)C(=O)N[C@@H](C(=O)N[C@H](C(=O)N[C@@H](CO)C(=O)N[C@H]1C(=O)N[C@@H](C)C(=O)N[C@@H](CCCN)C(=O)N[C@@H]([C@@H](C)CC)C(=O)O[C@H]1C)[C@@H](C)CC)[C@@H](C)CC (H-[dNMeF]IK[dK][d(aIle)]IS[dT]A[Orn]I; ester 8-C)
